The target of one assay is T1, human TRPM8 receptor (Homo sapiens, UniProt Q7Z2W7).
T1 construct: expressed in transfected cells; host or cells: HEK293, stably transfected, tetracycline-inducible expression
In words: Assay on TRPM8 modulators: Ca2+-sensitive dye (Fluo-4) fluorescence in HEK293-TRPM8 test cells. The settings on record: for EC50: HEK293-TRPM8 cells; for relative TRPM8 activation: HEK293 cells recombinantly expressing human TRPM8. Also noted: relative TRPM8 activation: concentration or dose not given beside the values. The assay is classed as cell-based. An outline of the steps: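 HEK293 cells stably carrying tetracycline-inducible human TRPM8 (1 µg/ml tetracycline), loaded next day with Fluo-4 (30 min 37 °C, 30 min RT). Compounds tested in triplicate at 0.1–200 µM (≤2% DMSO) and fluorescence read at 485/520 nm. EC50 from 4- or 5-parameter logistic fits of 6–10 concentrations.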

Assay [1] in a line: Sensory tasting of cooling intensity by trained panelists, WS-3 as reference. Type of assay: in vivo, human. The settings on record: 5 ppm in 5% sugar solution, rated after one minute, scale 1 (very weak) to 9 (very strong); for cooling intensity (sensory evaluation, score): tasted 40 seconds, n=10 to 11; for Sensory evaluation: cooling intensity. How it is done:
In order to quantify the cooling effect, comparative tests are carried out using menthane-3-carboxylic acid-N-ethylamide as a reference. For these comparative tests, the skilled person replaces the compound or compounds to be used according to the invention with menthane-3-carboxylic acid-N-ethylamide (also referred to as WS-3). Then the intensities of the cooling effects of the respective compounds or active ingredients are sensory evaluated by trained panelists (n=10 to 11) as described below and compared with each other.
The cooling intensity was tested as follows: Test solutions with 5 ppm of the compounds according to the invention were each tasted in a 5% sugar solution as well as a corresponding solution with 30 ppm of the reference substance WS-3. […] The panelists tasted the corresponding test solutions for exactly 40 seconds, rinsing the entire mouth with the corresponding test solution and then spitting out the sample or reference solution. Following the tasting, the test subjects rated the respective cooling intensity after one minute according to a scale of 1 (very weak) to 9 (very strong).

[2] abbreviates: TRPM8 activation, 6 to 10 concentrations, logistic curve fitting, read-out: EC50 value.

Like-named read-outs stand apart in the source and are kept apart here.

Broadly, the EC50 is the concentration that produces a half-maximal response.

T1 sequence (Q7Z2W7 whole entry): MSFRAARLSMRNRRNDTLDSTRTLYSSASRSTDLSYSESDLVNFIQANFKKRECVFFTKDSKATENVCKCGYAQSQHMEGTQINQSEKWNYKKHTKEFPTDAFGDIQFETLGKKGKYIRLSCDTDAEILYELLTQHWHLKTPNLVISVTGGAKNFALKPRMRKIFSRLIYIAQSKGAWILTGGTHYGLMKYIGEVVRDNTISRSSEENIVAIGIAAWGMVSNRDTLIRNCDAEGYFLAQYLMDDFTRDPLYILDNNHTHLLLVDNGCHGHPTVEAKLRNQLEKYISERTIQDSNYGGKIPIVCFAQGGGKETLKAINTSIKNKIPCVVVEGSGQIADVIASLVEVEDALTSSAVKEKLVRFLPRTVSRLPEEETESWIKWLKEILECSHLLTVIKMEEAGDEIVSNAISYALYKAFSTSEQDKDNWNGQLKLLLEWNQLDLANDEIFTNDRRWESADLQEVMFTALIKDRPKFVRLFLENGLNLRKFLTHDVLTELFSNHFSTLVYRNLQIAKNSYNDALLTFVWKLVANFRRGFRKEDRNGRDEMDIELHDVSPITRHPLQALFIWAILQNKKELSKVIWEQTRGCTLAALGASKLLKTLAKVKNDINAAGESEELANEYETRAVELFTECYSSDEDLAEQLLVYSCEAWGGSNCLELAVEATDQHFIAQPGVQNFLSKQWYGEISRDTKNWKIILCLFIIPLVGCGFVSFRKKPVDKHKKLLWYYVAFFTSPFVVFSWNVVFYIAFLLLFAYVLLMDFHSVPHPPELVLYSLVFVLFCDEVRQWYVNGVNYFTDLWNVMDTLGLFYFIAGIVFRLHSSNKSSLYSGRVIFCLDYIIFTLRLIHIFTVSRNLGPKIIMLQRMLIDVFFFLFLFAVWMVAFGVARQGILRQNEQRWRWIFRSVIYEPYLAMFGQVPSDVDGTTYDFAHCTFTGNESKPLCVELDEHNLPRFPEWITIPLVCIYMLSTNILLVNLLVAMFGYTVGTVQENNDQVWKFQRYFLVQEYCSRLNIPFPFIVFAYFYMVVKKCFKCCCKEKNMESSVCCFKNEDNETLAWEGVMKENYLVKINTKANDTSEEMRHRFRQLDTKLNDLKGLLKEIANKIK

Turning to `CC(Sc1nnc(-c2ccccc2)c(-c2ccccc2)n1)C(=O)NC1CC1` (stereo not shown) [Compound B-01, N-Cyclopropyl-2-[(5,6-diphenyl-1,2,4-triazin-3-yl)sulfanyl] propanamide], the EC50 at human TRPM8 receptor (setting [2]) was at most 1 µM; at human TRPM8 receptor (Table 5, read-out: TRPM8 EC50) it was 0.05 µM; on human TRPM8 receptor (Table 7, read-out: TRPM8 EC50), 0.05 µM. The “cooling intensity (sensory evaluation, score)” value in assay [1] stood at 4.2. The Sensory evaluation in assay [1] (Table 5) and in assay [1] (Table 9) was 4.2 each time. With `CNC(=O)[C@H]1C[C@H]1c1nc(-c2ccccc2)c(-c2ccccc2)o1` (racemic) [Compound A-04, rac-(1S,2R)-2-(4,5-diphenyloxazol-2-yl)-N-methyl-cyclopropane-carboxamides], the concentration giving a half-maximal response (EC50) on human TRPM8 receptor (setting [2]) was at most 1 µM; on human TRPM8 receptor (Table 6, read-out: TRPM8 EC50), 0.6 µM; on human TRPM8 receptor (Table 8, read-out: TRPM8 EC50), 0.6 µM. The Sensory evaluation in assay [1] (Table 6) and in assay [1] (Table 10) was 0.5 throughout. On to `CNC(=O)C(C)Sc1nnc(-c2ccccc2)c(-c2ccccc2)n1` (stereo not shown) [Compound B-11, 2-[(5,6-diphenyl-1,2,4-triazin-3-yl)sulfanyl]-N-methyl-propanamide], for which the EC50 on human TRPM8 receptor (Table 5, read-out: TRPM8 EC50) was found to be 1.43 µM; on human TRPM8 receptor (Table 7, read-out: TRPM8 EC50) it was 1.43 µM. The “cooling intensity (sensory evaluation, score)” value in assay [1] was found to be 5.3. The Sensory evaluation in assay [1] (Table 5) and in assay [1] (Table 9) was 5.3 each time. Take `CCNC(=O)CCc1nc(-c2ccccc2)c(-c2ccccc2)o1` [Compound A-07, 3-(4,5-diphenyloxazol-2-yl)-N-ethyl-propanamide]: the EC50 is at most 1 µM on human TRPM8 receptor (setting [2]); 0.15 µM at human TRPM8 receptor (Table 6, read-out: TRPM8 EC50); 0.15 µM on human TRPM8 receptor (Table 8, read-out: TRPM8 EC50). In addition, the Sensory evaluation in assay [1] (Table 6) and in assay [1] (Table 10) was 2.67 throughout. Consider `CNC(=O)CCc1nc(-c2ccccc2)c(-c2ccccc2)o1` [Compound A-16, 3-(4,5-diphenyloxazol-2-yl)-N-methyl-propanamide], for which the half-maximal effective concentration (EC50) amounted to 4.27 µM at human TRPM8 receptor (Table 6, read-out: TRPM8 EC50) and 4.27 µM on human TRPM8 receptor (Table 8, read-out: TRPM8 EC50). Besides, the Sensory evaluation in assay [1] (Table 6) and in assay [1] (Table 10) was 2.3 each time.

In the case of `O=C(CCc1nc(-c2ccccc2)c(-c2ccccc2)o1)NC1CC1` [Compound A-18, N-cyclopropyl-3-(4,5-diphenyloxazol-2-yl)propanamide], the “relative TRPM8 activation” value at human TRPM8 receptor came out at 80%. For the same molecule, in assay [1] (Table 6), the Sensory evaluation was 0.71. As to `CCSc1nc(-c2ccccc2)c(-c2ccccc2)o1` [Compound A-55, 2-ethylsulfanyl-4,5-diphenyl-oxazole], the “relative TRPM8 activation” value at human TRPM8 receptor is recorded as 1%. Also, in assay [1] (Table 6), the Sensory evaluation was 0.59. `O=C(CSc1nnc(-c2ccccc2)c(-c2ccccc2)n1)NC1CC1` [Compound B-19, N-cyclopropyl-2-[(5,6-diphenyl-1,2,4-triazin-3-yl)sulfanyl]acetamide]: the Sensory evaluation in assay [1] (Table 5) and in assay [1] (Table 9) was 1.9 throughout. For the molecule `COC(=O)C(C)Nc1nnc(-c2ccccc2)c(-c2ccccc2)n1` (stereo not shown) [Compound B-63, methyl 2-[(5,6-diphenyl-1,2,4-triazin-3-yl)amino]propanoate], at human TRPM8 receptor, the “relative TRPM8 activation” value was −2%. Same read-out and setting: with `CN(C)CCSc1nnc(-c2ccccc2)c(-c2ccccc2)n1` [Compound B-36, 2-[(5,6-diphenyl-1,2,4-triazin-3-yl)sulfanyl]-N,N-dimethyl-ethanamine] the figure was 20%. For the molecule `CN(C)CCOc1nnc(-c2ccccc2)c(-c2ccccc2)n1` [Compound B-42, 2-[(5,6-diphenyl-1,2,4-triazin-3-yl)oxy]-N,N-dimethyl-ethanamine], the “relative TRPM8 activation” value at human TRPM8 receptor is 8%. For the molecule `CCC(Sc1nnc(-c2ccccc2)c(-c2ccccc2)n1)C(=O)NC` (stereo not shown) [Compound B-03, 2-[(5,6-diphenyl-1,2,4-triazin-3-yl)sulfanyl]-N-methyl-butanamide], the EC50 on human TRPM8 receptor (setting [2]) was at most 1 µM; on human TRPM8 receptor (Table 5, read-out: TRPM8 EC50), 0.07 µM; on human TRPM8 receptor (Table 7, read-out: TRPM8 EC50), 0.07 µM.

As to `CNC(=O)C(C)Sc1cnccn1` (stereo not shown) [Compound B-59, N-methyl-2-pyrazine-2-ylsulfanyl-propanamide], the “relative TRPM8 activation” value on human TRPM8 receptor amounted to 1%.

In the case of `CN(C)CCSc1nc(-c2ccccc2)c(-c2ccccc2)o1` [Compound A-23, 2-(4,5-diphenyloxazol-2-yl)sulfanyl-N,N-dimethyl-ethanamine], the “relative TRPM8 activation” value at human TRPM8 receptor was determined as 62%. With `CCC(=O)CCc1nc(-c2ccccc2)c(-c2ccccc2)o1` [Compound A-40, 1-(4,5-diphenyloxazol-2-yl)pentan-3-one], on human TRPM8 receptor, the “relative TRPM8 activation” value was 5%. Take `CC(Sc1nnc(-c2ccccc2)c(-c2ccccc2)n1)C(=O)N1CCCC1` (stereo not shown) [Compound B-18, 2-[(5,6-diphenyl-1,2,4-triazin-3-yl)sulfanyl]-1-pyrrolidin-1-yl-propan-1-one]: the concentration for a half-maximal effect (EC50) on human TRPM8 receptor (Table 5, read-out: TRPM8 EC50) stood at 5.36 µM; at human TRPM8 receptor (Table 7, read-out: TRPM8 EC50), 5.36 µM. In the case of `CC(=O)NCCc1nc(-c2ccccc2)c(-c2ccccc2)o1` [Compound A-24, N-[2-(4,5-diphenyloxazol-2-yl)ethyl] acetamide], the “relative TRPM8 activation” value on human TRPM8 receptor came out at 56%. Also, the EC50 on human TRPM8 receptor (Table 6, read-out: TRPM8 EC50) amounted to 11.3 µM; at human TRPM8 receptor (Table 8, read-out: TRPM8 EC50) it was 11.3 µM. As to `COC(=O)CCc1nc(-c2ccccc2)c(-c2ccccc2)o1` [Compound A-73, methyl 3-(4,5-diphenyloxazol-2-yl)propanoate], the “relative TRPM8 activation” value at human TRPM8 receptor was −5%.

Turning to `OCC(O)CNc1nnc(-c2ccccc2)c(-c2ccccc2)n1` (stereo not shown) [Compound B-54, 3-[(5,6-diphenyl-1,2,4-triazin-3-yl)amino]propane-1,2-diol], the “relative TRPM8 activation” value at human TRPM8 receptor is recorded as 2%. As for `CNC(=O)CSc1ncco1` [Compound A-59, N-methyl-2-oxazol-2-ylsulfanyl-acetamide], the “relative TRPM8 activation” value on human TRPM8 receptor is on record as 1%. On the same count and under the same terms, the result for `O=C(CSc1nc(-c2ccccc2)c(-c2ccccc2)o1)NC1CCCC1` [Compound A-38, N-cyclopentyl-2-(4,5-diphenyloxazol-2-yl)sulfanyl-acetamide] reads 6%. With `CCC(=O)C(C)Sc1nnc(-c2ccccc2)c(-c2ccccc2)n1` (stereo not shown) [Compound B-29, 2-[(5,6-diphenyl-1,2,4-triazin-3-yl)sulfanyl]pentan-3-one], on human TRPM8 receptor, the “relative TRPM8 activation” value came out at 42%. As to `c1ccc(-c2nnc(NC3COC3)nc2-c2ccccc2)cc1` [Compound B-51, N-(oxetan-3-yl)-5,6-diphenyl-1,2,4-triazin-3-amine], at human TRPM8 receptor, the “relative TRPM8 activation” value worked out at 3%. Still for that read-out and setting: with `CC(Sc1nc(-c2ccccc2)c(-c2ccccc2)o1)C(=O)NC(C)(C)C` (stereo not shown) [Compound A-33, N-tert-butyl-2-(4,5-diphenyloxazol-2-yl) sulfanyl-propanamide] the figure was 21%; with `CC(Sc1nc(-c2ccccc2)c(-c2ccccc2)o1)C(=O)NC1CCCC1` (stereo not shown) [Compound A-30, N-cyclopentyl-2-(4,5-diphenyloxazol-2-yl)sulfanyl-propanamide], 26%; with `O=C(CSc1nc(-c2ccccc2)c(-c2ccccc2)o1)NC1CCC1` [Compound A-43, N-cyclobutyl-2-(4,5-diphenyloxazol-2-yl)sulfanyl-acetamide], 3%. For `CN(C(=O)CSc1nc(-c2ccccc2)c(-c2ccccc2)o1)C1CC1` [Compound A-27, N-cyclopropyl-2-(4,5-diphenyloxazol-2-yl)sulfanyl-N-methyl-acetamide], at human TRPM8 receptor, the “relative TRPM8 activation” value turned out to be 42%. In addition, the EC50 on human TRPM8 receptor (Table 6, read-out: TRPM8 EC50) turned out to be 18 µM; at human TRPM8 receptor (Table 8, read-out: TRPM8 EC50), 18 µM. Take `CC(Sc1nnc(-c2ccccc2)c(-c2ccccc2)n1)C(=O)NCC1CCCO1` (stereo not shown) [Compound B-32, 2-[(5,6-diphenyl-1,2,4-triazin-3-yl)sulfanyl]-N-(tetrahydrofuran-2-ylmethyl)propanamide]: the “relative TRPM8 activation” value at human TRPM8 receptor is given as 37%. Consider `CCNC(=O)C1CC(C)CCC1C(C)C` [WS-3, L-menthanecarboxylic acid N-ethylamide, reference compound], for which the EC50 at human TRPM8 receptor (setting [2]) was determined as 1.72 µM.

On to `CC(Sc1nnc(-c2ccccc2)c(-c2ccccc2)n1)C(=O)N(C)C1CCCCC1` (stereo not shown) [Compound B-39, N-cyclohexyl-2-[(5,6-diphenyl-1,2,4-triazin-3-yl)sulfanyl]-N-methyl-propanamide], for which the “relative TRPM8 activation” value on human TRPM8 receptor stood at 11%.

Regarding `CNC(=O)C(C)Sc1ncco1` (stereo not shown) [Compound A-50, N-methyl-2-oxazol-2-ylsulfanyl-propanamide], the “relative TRPM8 activation” value at human TRPM8 receptor worked out at 1%.

The record behind these values is patent US20250163006A1, “New Coolants, and Preparations Containing Same” (Symrise AG, priority 2022, published 2025).
